Measured values from patent US20220388980A1, “QUINOLINE INHIBITORS OF RAD52 AND METHODS OF USE” (Drexel University, priority 2019, published 2022).

Molecular target: T1, RAD52 (Homo sapiens, UniProt P43351)
T1 construct: made in house
T1 sequence (P43351 1-418): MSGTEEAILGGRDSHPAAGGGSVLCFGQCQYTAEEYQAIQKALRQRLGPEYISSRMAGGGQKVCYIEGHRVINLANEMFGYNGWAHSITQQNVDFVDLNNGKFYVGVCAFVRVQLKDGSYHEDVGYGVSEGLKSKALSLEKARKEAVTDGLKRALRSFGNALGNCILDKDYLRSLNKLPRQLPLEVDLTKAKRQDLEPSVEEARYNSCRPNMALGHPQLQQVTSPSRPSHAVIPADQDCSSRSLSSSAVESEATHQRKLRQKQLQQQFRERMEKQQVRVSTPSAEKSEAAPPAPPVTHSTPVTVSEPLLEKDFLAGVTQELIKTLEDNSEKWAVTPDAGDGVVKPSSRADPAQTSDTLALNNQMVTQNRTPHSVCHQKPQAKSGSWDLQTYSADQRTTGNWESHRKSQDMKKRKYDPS
Test: D-loop formation assay
Format: biochemical
Conditions: compound at 10 μM; 32P-labeled ssDNA (oligo 90) and supercoiled pUC19 DNA, 37° C.

Row | SMILES | D-Loop (% @10 μM) [%]
1 | S=C(NCCN1CCCCCC1)Nc1ccc2nc(N3CCNCC3)ccc2c1 [compound 0021] | 40.29
2 | S=C(NCCCN1CCCCCC1)Nc1ccc2nc(N3CCNCC3)ccc2c1 [compound 0022] | 37.7
3 | CCN1CCN(c2cc(C)c3cc(NC(=S)NCCN4CCCCC4)ccc3n2)CC1 [compound 0025] | 36.08
4 | CCN1CCN(c2cc(C)c3cc(NC(=S)NCCCN4CCCCC4)ccc3n2)CC1 [compound 0026] | 11.42
5 | CCN1CCN(c2cc(C)c3cc(NC(=S)NCCN4CCCCCC4)ccc3n2)CC1 [compound 0027] | 23.26
6 | CCN1CCN(c2cc(C)c3cc(NC(=S)NCCCN4CCCCCC4)ccc3n2)CC1 [compound 0028] | 46.57
7 | CCN1CCN(c2cc(C)c3cc(NC(=S)NCCN4CCCC4)ccc3n2)CC1 [compound 0029] | 46.67
8 | CCN1CCN(c2cc(C)c3cc(NC(=S)NCCN)ccc3n2)CC1 [compound 0033] | 12.77
9 | CCN1CCN(c2cc(C)c3cc(NC(=S)NCCN(C(C)C)C(C)C)ccc3n2)CC1 [compound 0035] | 64.68
10 | CCN(CC)CCCCNC(=S)Nc1ccc2nc(N3CCN(CC)CC3)cc(C)c2c1 [compound 0036] | 64.62
11 | CCN(CC)CCNC(=O)Nc1ccc2nc(N3CCN(CC)CC3)cc(C)c2c1 [compound 0038, 1-(2-(diethylamino)ethyl)-3-(2-(4-ethylpiperazin-1-yl)-4-methylquinolin-6-yl)urea] | 77.7
12 | CCN1CCN(c2cc(C)c3cc(NC(=O)NCCCN4CCCCCC4)ccc3n2)CC1 [compound 0039, 1-(3-(azepan-1-yl)propyl)-3-(2-(4-ethylpiperazin-1-yl)-4-methylquinolin-6-yl)urea] | 93.38
13 | CCN1CCN(c2cc(C)c3cc(NC(=S)NCCN4CCCCCCC4)ccc3n2)CC1 [compound 0041] | 62.62
14 | CCN1CCN(c2cc(C)c3cc(NC(=S)NCCCN4CCC4)ccc3n2)CC1 [compound 0042] | 53.70
15 | CCN1CCN(c2cc(C)c3cc(NC(=S)NCC(C)(CN)CN)ccc3n2)CC1 [compound 0044] | 50.05
16 | CCN1CCN(c2cc(C)c3cc(NC(=S)NCCN4CCNCC4)ccc3n2)CC1 [compound 0045] | 55.68
17 | CCN1CCN(c2cc(C)c3cc(NC(=S)NCCN4CCN(C)CC4)ccc3n2)CC1 [compound 0046] | 18.73
18 | CCN1CCN(c2cc(C)c3cc(NC(=S)NCCCCN)ccc3n2)CC1 [compound 0047] | 7.92
19 | CCN(CC)CCNC(=S)Nc1ccc2nc(N3CCNCC3)cc(C)c2c1 [compound 0048] | 15.65
20 | CCN(CC)CCNC(=S)Nc1ccc2nc(N3CCN(CC4CC4)CC3)cc(C)c2c1 [compound 0049] | 44.4

Row | SMILES | D-Loop (% @10 μM) [%]
21 | CCN(CC)CCNC(=S)Nc1ccc2nc(N3CCN(CC4CCCCC4)CC3)cc(C)c2c1 [compound 0050] | 62.82
22 | CCN(CC)CCNC(=S)Nc1ccc2nc(N3CCN(CC4CCCNC4)CC3)cc(C)c2c1 (centres unmarked) [compound 0051] | 10.13
23 | CCN(CC)CCNC(=S)Nc1ccc2nc(N3CCN(CC4CCNCC4)CC3)cc(C)c2c1 [compound 0052] | 4.07
24 | CCC(C)[C@H](N)C(=O)N1CCN(c2cc(C)c3cc(NC(=S)NCCN(CC)CC)ccc3n2)CC1 (some centres unmarked) [compound 0053] | 54.13
25 | CCN(CC)CCNC(=S)Nc1ccc2nc(N3CCN(C(=O)C4CCCN4)CC3)cc(C)c2c1 (centres unmarked) [compound 0054] | 53.78
26 | CCN(CC)CCNC(=S)Nc1ccc2nc(N3CCN(C(=O)C4CNCCN4)CC3)cc(C)c2c1 (centres unmarked) [compound 0055] | 27.42
27 | CCN1CCN(c2cc(C)c3cc(NC(=S)NCCCCCN)ccc3n2)CC1 [compound 0056] | 0.31
28 | CCN1CCN(c2cc(C)c3cc(NC(=S)NCCCNC)ccc3n2)CC1 [compound 0057] | 52.1
29 | CCN1CCN(c2cc(C)c3cc(NC(=S)N(C)CCCN)ccc3n2)CC1 [compound 0058] | 25.89
30 | Cc1cc(N2CCN(CC3CCCNC3)CC2)nc2ccc(NC(=S)NCCN3CCCCCC3)cc12 (centres unmarked) [compound 0059] | 1.3
31 | Cc1cc(N2CCN(CC3CCNCC3)CC2)nc2ccc(NC(=S)NCCN3CCCCCC3)cc12 [compound 0060] | 0.66
32 | Cc1cc(N2CCN(CC3CCCNC3)CC2)nc2ccc(NC(=S)NCCCN3CCCCCC3)cc12 (centres unmarked) [compound 0062] | 1.89
33 | Cc1cc(N2CCN(CC3CCNCC3)CC2)nc2ccc(NC(=S)NCCCN3CCCCCC3)cc12 [compound 0063] | 1.58
34 | Cc1cc(N2CCN(CC3CCCNC3)CC2)nc2ccc(NC(=S)NCCCN3CCCC3)cc12 (centres unmarked) [compound 0064] | 1.5
35 | Cc1cc(N2CCN(CC3CCNCC3)CC2)nc2ccc(NC(=S)NCCCN3CCCC3)cc12 [compound 0065] | 1.04
36 | CCN1CCN(c2cc(C)c3cc(NC(=S)NCCCCN(C)C)ccc3n2)CC1 [compound 0067] | 35.65
37 | CCN1CCN(c2cc(C)c3cc(NC(=S)NCCCN4CCCC4)ccc3n2)CC1 [compound 0068] | 30.62
38 | CCN1CCN(c2cc(C)c3cc(NC(=S)NCCC4CCCN4)ccc3n2)CC1 (centres unmarked) [compound 0069] | 20.7
39 | CCN1CCN(c2cc(C)c3cc(NC(=S)NCCN4CCC(CN5CCCC5)C4)ccc3n2)CC1 (centres unmarked) [compound 0073] | 16.42
40 | CCN1CCN(c2cc(C)c3cc(NC(=S)NCCCN)ccc3n2)CC1 [compound 0077] | 21.2

Row | SMILES | D-Loop (% @10 μM) [%]
41 | CCN1CCN(c2cc(C)c3cc(NC(=S)NCCCN4CCNCC4)ccc3n2)CC1 [compound 0079] | 25.15
42 | CCN(CC)CCNC(=S)Nc1ccc2nc(N3CCN(CCN)CC3)cc(C)c2c1 [compound 0080] | 35.63
43 | CCN(CC)CCNC(=S)Nc1ccc2nc(N3CCN(Cc4nccn4C)CC3)cc(C)c2c1 [compound 0084] | 68.84
44 | CCN(CC)CCNC(=S)Nc1ccc2nc(N3CCN(CC(N)CO)CC3)cc(C)c2c1 (centres unmarked) [compound 0086] | 4.44
45 | CCN(CC)CCNC(=S)Nc1ccc2nc(N3CCN(CCC4CCC(N)CC4)CC3)cc(C)c2c1 (centres unmarked) [compound 0087] | 0
46 | CCN(CC)CCNC(=S)Nc1ccc2nc(N3CCCC3)cc(C)c2c1 [compound 0088] | 8.25
47 | Cc1cc(N2CCCC2)nc2ccc(NC(=S)NCCN3CCCCCC3)cc12 [compound 0089] | 3.48
48 | Cc1cc(N2CCCC2)nc2ccc(NC(=S)NCCN3CCCCC3)cc12 [compound 0090] | 2.93
49 | Cc1cc(N2CCCC2)nc2ccc(NC(=S)NCCCN3CCCCC3)cc12 [compound 0091] | 3.47
50 | Cc1cc(N2CCCC2)nc2ccc(NC(=S)NCCCN3CCCC3)cc12 [compound 0092] | 5.98
51 | Cc1cc(N2CCCC2)nc2ccc(NC(=S)NCCN)cc12 [compound 0093] | 4.86
52 | Cc1cc(N2CCCC2)nc2ccc(NC(=S)NCCCN)cc12 [compound 0094] | 4.26
53 | Cc1cc(N2CCCC2)nc2ccc(NC(=S)NCCCCN)cc12 [compound 0095] | 4.51
54 | Cc1cc(N2CCCC2)nc2ccc(NC(=S)NCCN3CCNCC3)cc12 [compound 0096] | 3.99
55 | Cc1cc(N2CCCC2)nc2ccc(NC(=S)NCCN3CCN(C)CC3)cc12 [compound 0097] | 4.72
56 | CCN(CC)CCNC(=S)Nc1ccc2nc(N3CCCCC3)cc(C)c2c1 [compound 0098] | 70.99
57 | Cc1cc(N2CCCCC2)nc2ccc(NC(=S)NCCN3CCCCCC3)cc12 [compound 0099] | 67.50
58 | Cc1cc(N2CCN(CC3CCNCC3)CC2)nc2ccc(NC(=O)NCCCN3CCCCCC3)cc12 [compound 0113, 1-(3-(azepan-1-yl)propyl)-3-(4-methyl-2-(4-(piperidin-4-ylmethyl)piperazin-1-yl)quinolin-6-yl)urea] | 0.34
59 | CCN(CC)CCNC(=O)C(=O)Nc1ccc2nc(N3CCN(CC)CC3)cc(C)c2c1 [compound 0114, N^1-(2-(diethylamino)ethyl)-N^2-(2-(4-ethylpiperazin-1-yl)-4-methylquinolin-6-yl)oxalamide] | 16
